According to the SangsterLogP compilation:

Going from `Cc1c[nH]c(=O)[nH]c1=O` to `Cc1c[nH]c2ccccc12`, the logP rises from -0.62 to 2.6.

Going from `CC(=O)C(C#N)=NNc1cc(C(F)(F)F)ccc1Cl` to `CC(=O)C(C#N)=NNc1ccccc1Cl`, the logP falls from 5.08 to 4.

Going from `O=C(NC(CO)C(O)c1ccc([N+](=O)[O-])cc1)C(F)F` (stereo not given) to `NC(=O)c1ccc([N+](=O)[O-])cc1`, the logP rises from 0.42 to 0.82.

Compared with `c1ncc2[nH]cnc2n1`, `Brc1cccnc1` is higher in logP: -0.37 for the first, 1.6 for the second.

Going from `CCc1cccc(OCC(=O)O)c1` to `CCOc1cccc(O)c1`, the logP falls from 2.25 to 1.98.

First: CNc1ccc(S(N)(=O)=O)cc1
Second: CCCOC(=O)c1ccc(S(N)(=O)=O)cc1
The logP of the first is lower: 0.08 for the first, 1.75 for the second.

First: CC(CN1CCOCC1)C(C(=O)N1CCCC1)(c1ccccc1)c1ccccc1 (stereo not given)
Second: c1ccc(N2CCCCC2)cc1
The logP of the first is higher: 3.61 for the first, 2.98 for the second.

First: CC(=O)C(C#N)=NNc1ccc(Cl)cc1
Second: CC(=O)Nc1ccc(Cl)cc1
The logP of the first is higher: 4.1 for the first, 2.09 for the second.

First: CCCCN
Second: CCCCCCCN
The logP of the first is lower: 0.97 for the first, 2.57 for the second.

Compared with `CNC(=O)Oc1ccc(C)cc1`, `CNC(=O)Oc1cccc(C#N)c1` is lower in logP: 1.66 for the first, 0.97 for the second.

First: NCCc1cccnc1
Second: CCCCc1ccccc1
The logP of the first is lower: -0.11 for the first, 4.38 for the second.

First: CCCCCCC(C)=O
Second: CCCCC(C)=O
The logP of the first is higher: 2.37 for the first, 1.38 for the second.

First: NNC(=O)c1ccnc(F)c1
Second: O=C(O)c1cccc(O)c1
The logP of the first is lower: -0.11 for the first, 1.5 for the second.

First: c1ccc2c(c1)CCC2
Second: c1cc2c3c(cccc3c1)CC2
The logP of the first is lower: 3.18 for the first, 3.92 for the second.

Going from `Cc1cnc(NS(=O)(=O)c2ccc(N)cc2)nc1` to `COc1ccc(N)cc1`, the logP rises from 0.34 to 0.95.

First: CC(C)N(N=O)C(C)C
Second: CC[C@H](C)[C@H](N)C(=O)O
The logP of the first is higher: 1.38 for the first, -1.7 for the second.

Going from `CC(=O)c1ccc([N+](=O)[O-])cc1` to `CC(=O)c1ccc(Br)cc1`, the logP rises from 1.53 to 2.43.

Going from `N[C@@H](Cc1c[nH]c2ccccc12)C(=O)O` to `O=C(O)COc1ccccc1I`, the logP rises from -1.06 to 2.33.

Compared with `NC(=O)/C=C/c1ccccc1`, `CNC(=O)c1ccccc1` is lower in logP: 1.43 for the first, 0.86 for the second.

Compared with `Oc1ccc2ccccc2c1`, `Cc1ccc2ccccc2c1` is higher in logP: 2.7 for the first, 3.86 for the second.

Going from `Cn1nnc2ccccc21` to `Oc1ccccc1O`, the logP falls from 1.13 to 0.88.

First: CCCCCC=O
Second: CCCCCOC(N)=O
The logP of the first is higher: 1.78 for the first, 1.35 for the second.

First: O=C(O)CCCCCCCC(=O)O
Second: CCCCCCCCCCCC(=O)O
The logP of the first is lower: 1.57 for the first, 4.6 for the second.

First: CCCCNc1ccc(C(=O)OCCN(C)C)cc1
Second: CCOC(=O)C(C#N)=NNc1ccc(Cl)c(Cl)c1
The logP of the first is lower: 3.51 for the first, 4.66 for the second.

Going from `CCC(=O)O` to `CNC(=O)OC`, the logP falls from 0.33 to -0.06.

First: CNC(=O)Oc1ccccc1OC(C)C
Second: CC(=O)Nc1ccccc1
The logP of the first is higher: 1.52 for the first, 1.16 for the second.

`Nc1ncnc2c1ncn2[C@H]1C=C[C@@H](CO)O1` and `Nc1ncnc2c1ncn2[C@@H]1O[C@H](CO)C[C@H]1O` are within 0.2 log units of each other in logP: -0.5 for the first, -0.61 for the second.

First: Oc1ccc(Br)cc1Br
Second: O=C(O)Cc1ccc(O)cc1
The logP of the first is higher: 3.22 for the first, 0.75 for the second.

Compared with `CC(C)(S)[C@@H](N)C(=O)O`, `N[C@@H](Cc1cnc[nH]1)C(=O)O` is lower in logP: -1.78 for the first, -3.32 for the second.

Going from `N=c1[nH]c(=O)c2ncn([C@@H]3C=C[C@@H](CO)O3)c2[nH]1` to `Nc1nc2c(ncn2COCCO)c(=O)[nH]1`, the logP falls from -1.21 to -1.56.

Going from `O=[N+]([O-])c1cc(Cl)c(O)c(Cl)c1` to `O=[N+]([O-])c1ccc(N=C=S)cc1`, the logP rises from 2.94 to 3.62.

Going from `CC(C)CN` to `CCCCC(CC)CN` (stereo not given), the logP rises from 0.73 to 2.82.

Going from `CN1CCN(CCCN2c3ccccc3Sc3ccc(C(F)(F)F)cc32)CC1` to `OCCN1CCN(CC/C=C2\c3ccccc3Sc3ccc(C(F)(F)F)cc32)CC1`, the logP falls from 5.03 to 4.51.

Going from `C=CCN1CC[C@]23c4c5ccc(O)c4O[C@H]2[C@@H](O)C=C[C@H]3[C@H]1C5` to `C=CCOc1ccc(CC(=O)O)cc1Cl`, the logP rises from 1.86 to 2.48.

Compared with `Cc1cc(Cl)ccc1NN=C(C#N)C(=O)C(C)C`, `CC(C)C(=O)C(C#N)=NNc1ccc(Cl)cc1C(F)(F)F` is higher in logP: 4.31 for the first, 5.67 for the second.

Compared with `O=[N+]([O-])c1cccc2c1ccc[n+]2[O-]`, `Cc1ccc(C)c2ccccc12` is higher in logP: 0.49 for the first, 4.37 for the second.

Going from `O=C1CN=C(c2ccccc2)c2cc(Cl)ccc2N1CC1CC1` to `Clc1ccc(-c2ccccc2)cc1`, the logP rises from 3.73 to 4.61.

Going from `C=CCNCC=C` to `CCCNC(C)CC` (stereo not given), the logP rises from 1.11 to 1.91.

Compared with `Nc1nc(N)c2ncn([C@H]3C[C@H](F)[C@@H](CO)O3)c2n1`, `O=c1ccn([C@H]2C[C@H](F)[C@@H](CO)O2)c(=O)[nH]1` is lower in logP: 0.05 for the first, -0.49 for the second.

Going from `CCOC(=O)C(C#N)=NNc1cc(Cl)c(Cl)c(Cl)c1` to `COC(=O)C(C#N)=NNc1ccc(Cl)cc1C(F)(F)F`, the logP falls from 5.03 to 4.66.

First: CC(=O)c1ccc(S(=O)(=O)NC(=O)NC2CCCCC2)cc1
Second: CC1(C)S[C@@H]2[C@H](NC(=O)C(C(=O)O)c3ccccc3)C(=O)N2[C@H]1C(=O)O (stereo not given in full)
The logP of the first is higher: 2.44 for the first, 1.13 for the second.

Going from `Cn1cccc1` to `Nc1ccccc1Cl`, the logP rises from 1.21 to 1.9.

Going from `S=C=Nc1ccccc1` to `c1ccc(-c2ccncc2)cc1`, the logP falls from 3.28 to 2.59.

First: CCCN(CC)CCC
Second: CCC1(CCC(C)C)C(=O)NC(=O)NC1=O
The logP of the first is higher: 2.68 for the first, 2.07 for the second.

Going from `O=C1NS(=O)(=O)c2ccccc21` to `c1cncnc1`, the logP falls from 0.91 to -0.4.
